Several values for one entry are separate records, joined by “and”; a condition that tells them apart may be missing. Identical values can stand only once. Values belong to the molecule of their own block, whether it stands above or below them.
Legend:
[1] = target: T1, HuR-ARE^Msi1 interaction (full length HuR) (Homo sapiens, UniProt Q15717); assay: FP competition assay, HuR-ARE^Msi1 binding; assay type: biochemical; conditions: 10 nM HuR, 2 nM fluorescein-labeled ARE^Msi1; n = 3; read-out: IC50, inhibition of HuR-ARE^Msi1 interaction
T1 construct: full length HuR (326 residues); made in house; host or cells: E. coli BL21 (DE3)
Procedure: Synthetic RNA oligos were from Dharmacon. For FP assay, fluorescein-tagged ARE^Msi1 oligo derived from the 3’-UTR of Musashi RNA-binding protein 1 (Msi1) with the sequence 5’-GCUUUUAUUUAUUUUG-3’ and 11-mer ARE^c-fos RNA oligo (5’-AUUUUUAUUUU-3’) identical to the c-fos RNA sequence used in the crystal structure of HuR-RNA complex were used. For NMR studies, unmodified 11-mer ARE^c-fos RNA oligo [8] was used. Prior to the addition of RNA to the protein, the RNA was heated at 95°C for 5 min followed by immediate cooling on ice for 5 min. […]
(§1) FP competition assay for screening and hit validation were carried out as reported previously. […] Measurements were taken using a BioTek Synergy H4 hybrid plate reader (Biotek, Winooski, VT) after incubating for 2 hours at room temperature. […] Percent inhibition was calculated by comparing to the DMSO (0% inhibition) and labeled free RNA only (100% inhibition) controls.
A FP-based high throughput screen on HuR and a 16-mer ARE^Msi1 RNA oligomer from the 3’-UTR of Musashi1 (Msi1) mRNA previously identified novel small molecule inhibitors of HuR-ARE interaction. […] Multi-dose effect was determined to verify the inhibition of HuR-ARE interaction. […]

HuR RRM1/2 [2] = target: T2, HuR RRM1/2 (Homo sapiens, UniProt Q15717); assay: NMR titration of 15N/ILV-labeled HuR RRM1/2; assay type: binding; conditions: equimolar concentration (1:1), 50 μM 15N HuR RRM1/2
T2 construct: HuR RRM1/2 (residues 18–186); made in house; host or cells: E. coli BL21 (DE3)
Procedure: Proteins for NMR were dissolved in NMR buffer (100 mM NaCl, 10 mM NaPO4 pH 6.8, 10% D2O). ^15N NMR data were acquired using Bruker Avance 800 MHz spectrometer with a TCI cryoprobe. ILV ^13C NMR data were acquired using on a Bruker Avance III 600 MHz spectrometer. NMR data were acquired at 25°C, processed using NMRPipe and analyzed using NMRView. For ^15N and ILV chemical shift mapping, 80 μM ^15N/ILV-labeled HuR RRM1/2 was titrated with unlabeled ARE^c-fos RNA at increasing molar ratios of 1:0, 1:0.5, 1:1, and 1:1.7. AZA-9 was titrated at 1:1 and 1:2 molar ratios into 50 μM ^15N/ ILV-labeled HuR RRM1/2 in NMR buffer with 10% d6-DMSO. […] The ^15N titrations were monitored by acquiring 2D ^1H-^15N TROSY spectra, and the ILV titrations were monitored by acquiring 2D ^1H-^13C HSQC spectra. The published backbone amide assignments of HuR RRM1/2 (BMRB entry 26628) and the ILV assignments made herein were used in the NMR analysis.
The interaction of AZA-9 with HuR RRM1/2 was characterized by NMR methods. […] Specifically, residue R97 in the inter-domain linker region (whose intensity reduced by ~50% at equimolar concentration of AZA-9, Fig 4C) has been previously reported as important for RNA binding, RNA recognition and high affinity HuR-RNA complex formation. […]

[3] = target: T3, HuR-ARE^c-fos interaction (full length HuR) (Homo sapiens, UniProt Q15717); assay: FP competition assay, HuR-ARE^c-fos binding; assay type: biochemical; conditions: 10 nM full length HuR, 2 nM fluorescein-labeled ARE^c-fos; n = 3; read-out: IC50, disruption of HuR-ARE^c-fos binding
T3 construct: full length HuR (326 residues); made in house; host or cells: E. coli BL21 (DE3)
Procedure: (§2) Synthetic RNA oligos were from Dharmacon. For FP assay, fluorescein-tagged ARE^Msi1 oligo derived from the 3’-UTR of Musashi RNA-binding protein 1 (Msi1) with the sequence 5’-GCUUUUAUUUAUUUUG-3’ and 11-mer ARE^c-fos RNA oligo (5’-AUUUUUAUUUU-3’) identical to the c-fos RNA sequence used in the crystal structure of HuR-RNA complex were used. For NMR studies, unmodified 11-mer ARE^c-fos RNA oligo [8] was used. Prior to the addition of RNA to the protein, the RNA was heated at 95°C for 5 min followed by immediate cooling on ice for 5 min. The azaphilone derivatives used herein were obtained by semisynthetic diversification of asperbenzaldehyde, which was purified from a strain of Aspergillus nidulans that was engineered to overproduce this compound as described elsewhere. Compounds were dissolved in dimethyl sulfoxide (DMSO) to form 10 mM stock solutions; for NMR studies, deuterated dimethyl sulfoxide (d6-DMSO) was used.
as §1, with “controls. […]” for “controls.”

[4] = target: T4, HuR RRM1/2-ARE^c-fos interaction (Homo sapiens, UniProt Q15717); assay: FP competition assay, HuR RRM1/2-ARE^c-fos binding; assay type: biochemical; conditions: 50 nM HuR RRM1/2, 2 nM fluorescein-labeled ARE^c-fos; n = 3; read-out: IC50, disruption of HuR RRM1/2-ARE^c-fos binding
T4 construct: HuR RRM1/2 (residues 18–186); made in house; host or cells: E. coli BL21 (DE3)
Procedure: as §2
as §1, with “controls. […]” for “controls.”

Musashi-1 (Msi1) = Musashi-1 (Msi1) (Homo sapiens, UniProt O43347); assay: Binding to Musashi-1 (unpublished data); conditions: authors' unpublished data
HuR = target: T5, HuR (Homo sapiens, UniProt Q15717); assay: Surface plasmon resonance, direct binding to immobilized HuR; conditions: injected at 0–125 μM, 20°C; n = 2
T5 construct: made in house; host or cells: E. coli BL21 (DE3)
Procedure: Surface plasmon resonance (SPR) datasets were acquired using a BIACORE 3000 (GE Healthcare) at 20°C as described. Briefly, HuR was immobilized into a CM5 chip by amine-coupling chemistry and AZA-9 dissolved in buffer (20 mM HEPES pH 7.4, 150 mM NaCl, 3 mM EDTA, 0.05% p20 (v/v), 5% DMSO (v/v)) was injected into the flow cell at a flow rate of 60 μL/min. The mixtures complexes were allowed to associate for 400 sec and dissociate for 160 sec. SPR sensorgrams were generated using Scrubber2 (BioLogic Software, Australia).
Fig 1 AZA-9 inhibits HuR-ARE RNA interaction and binds directly to HuR. Titration of 2 nM ARE^c-fos and control RNA (a 16-nt fluorescein-labeled RNA oligo with random sequence) with (A) HuR and (B) HuR RRM1/2 (n = 3). (C) Dose-response curve of AZA-9 disrupting HuR-ARE^c-fos binding in FP assay using 10 nM HuR and 2 nM fluorescein-labeled ARE^c-fos (n = 3). (D) Dose-response curve of AZA-9 disrupting HuR RRM1/2-ARE^c-fos binding in FP assay using 50 nM HuR RRM1/2 and 2 nM fluorescein-labeled ARE^c-fos (n = 3). (E) SPR sensorgrams of AZA-9 injected at increasing concentrations of 0–125 μM into a flow cell containing immobilized HuR (n = 2). Structure of AZA-9 is shown on the right. The following were the negative controls used–random RNA in (A) and (B); and AZA-15 in (C) and (D). […]

HuR full length [5] = target: T6, HuR full length (UniProt Q15717 1-326); assay: fluorescence polarization; 10 nM HuR, 2 nM RNA; complex disrupted by AZA-9 (compound IC50 1.1 uM); FP: room temperature, 2 h incubation in the competition assay, buffer not given (as in cited ref 22); NMR: 100 mM NaCl, 10 mM sodium phosphate pH 6.8, 10% D2O; conditions: protein: recombinant; single strand
HuR full length [6] = target: T6, HuR full length; assay: fluorescence polarization; 2 nM RNA; FP: room temperature, 2 h incubation in the competition assay, buffer not given (as in cited ref 22); NMR: 100 mM NaCl, 10 mM sodium phosphate pH 6.8, 10% D2O; conditions: protein: recombinant; single strand
HuR RRM1/2 [7] = target: HuR RRM1/2 (UniProt Q15717 18-186); assay: as above; conditions: protein: recombinant; tags: N-terminal His6 (retained); single strand
Sequence of HuR RRM1/2 (UniProt Q15717 18-186) (Q15717 18-186): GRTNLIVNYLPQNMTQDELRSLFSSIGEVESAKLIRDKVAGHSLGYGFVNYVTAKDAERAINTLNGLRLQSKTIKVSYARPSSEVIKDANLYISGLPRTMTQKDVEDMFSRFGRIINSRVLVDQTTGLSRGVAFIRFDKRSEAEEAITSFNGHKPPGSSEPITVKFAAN

T3 sequence (Q15717 whole entry): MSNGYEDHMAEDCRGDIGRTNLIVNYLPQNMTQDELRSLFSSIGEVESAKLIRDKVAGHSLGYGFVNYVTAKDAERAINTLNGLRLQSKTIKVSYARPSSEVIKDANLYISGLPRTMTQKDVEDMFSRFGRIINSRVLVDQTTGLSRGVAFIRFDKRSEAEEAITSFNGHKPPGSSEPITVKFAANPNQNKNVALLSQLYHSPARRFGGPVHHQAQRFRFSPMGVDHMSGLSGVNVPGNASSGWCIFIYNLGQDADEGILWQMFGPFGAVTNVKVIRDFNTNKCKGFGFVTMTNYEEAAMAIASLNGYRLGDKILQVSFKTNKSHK
T6 sequence (Q15717 whole entry): as above
Sequence of Musashi-1 (Msi1) (O43347 whole entry, species assumed): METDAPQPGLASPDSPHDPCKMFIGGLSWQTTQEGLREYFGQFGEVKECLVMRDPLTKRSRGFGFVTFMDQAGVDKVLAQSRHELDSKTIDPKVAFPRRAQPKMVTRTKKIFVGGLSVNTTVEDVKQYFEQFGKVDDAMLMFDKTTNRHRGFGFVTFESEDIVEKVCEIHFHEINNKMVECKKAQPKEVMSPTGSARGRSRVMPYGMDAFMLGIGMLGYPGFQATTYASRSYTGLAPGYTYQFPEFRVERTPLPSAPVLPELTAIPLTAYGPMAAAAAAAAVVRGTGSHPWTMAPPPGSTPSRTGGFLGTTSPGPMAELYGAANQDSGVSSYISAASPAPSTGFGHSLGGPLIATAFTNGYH
T2 sequence (Q15717 18-186): as the sequence (Q15717 18-186) above
T4 sequence (Q15717 18-186): as above
T1 sequence (Q15717 whole entry): as the sequence (Q15717 whole entry) above
T5 sequence (Q15717 whole entry): as above

- IC50 [1]: 1100 nM
- reduction of NMR peak intensity of residue R97 (HuR RRM1/2 [2]): ~ 50%
- IC50 [3]: ~1200 nM and 1200 nM
- IC50 [4]: 7400 nM
- binding to Musashi-1 (in words) (Musashi-1 (Msi1)): also binds
Molecule: CC[C@H](C)/C=C(C)/C=C/C1=CC2=C(Br)C(=O)C(C)(OC(C)=O)C(=O)C2=CO1 (stereo partly drawn) [AZA-9, azaphilone-9]
- SPR optical response on immobilized HuR (in words) (HuR): increased optical response in a dose-dependent manner

Molecule: GCUUUUAUUUAUUUUG (ssRNA) [AREMsi1 (fluorescein)]
- binding result (HuR full length [5]): binds

Molecule: AUUUUUAUUUU (ssRNA) [AREc-fos (fluorescein)]
- Kd (HuR full length [6]): 3.3 nM
- Kd (HuR RRM1/2 [7]): 22.2 nM
